The source of these data is patent publication US7714158B2, “Ibandronate polymorph” (Hoffmann-La Roche Inc., priority 2005, dated 2010).

A short description of series [1]: Relative thermodynamic stability of Ibandronate polymorphs. The settings on record: compared with polymorph B.
A short description of series [2]: Solubility measurement of crystalline Ibandronate polymorphs by suspension and complexometric titration. Format: physicochemical. The settings on record: Polymorph A; water; 25° C., 24 h stirred + 24 h unstirred; listed as Ibandronate polymorph A, monosodium salt monohydrate. The method, then: The solubility of the individual crystalline Ibandronate polymorphs A and B was measured for various solutions. Approximately 10 g of the corresponding polymorph A or B were suspended in three different buffer solutions at pH 2, pH 4 (Titrisol-buffer, citrate/HCl), at pH 7 (methenamine buffer, HCl) or in water. The suspension was stirred for 24 hours at 25° C. and was kept additionally 24 hours without stirring at the same temperature. Solubility was calculated by titration according to the following method.
The residue was filtered, 2 ml of the filtrate taken, 5 ml of Titriplex III solution were added and diluted with water to 100 ml. 2 ml of this solution were added to approximately 0.1 ml of xylenol orange indicator and the pH was adjusted to 6.5 by adding small portions of methenamine buffer solution or 0.1 M hydrochloric acid. The solution is titrated immediately with Th-DCTA-xylenol orange complex until the color changes from yellow to reddish-violet. The endpoint is determined photometrically.

Turning to `CCCCCN(C)CCC(O)(P(=O)([O-])O)P(=O)(O)O.O.[Na+]` [Polymorph A, 3-(N-methyl-N-pentyl) amino-1-hydroxypropane-1,1-diphosphonic acid monosodium salt monohydrate], the thermodynamic stability result in series [1] is “thermodynamically more stable”. The solubility entry in series [2] is given as “about 278 g/l”.
